Measured values from US20050221328A1, “Inhibitors of inflammatory gene activity and cholesterol biosynthesis” (Wyeth, priority 2002, published 2005).
Entries after “also recorded” stand apart in the source; their conditions may differ.

What was measured:
[1] = test system: SHP; experiment: IL-1β inhibition of SHP expression in HepG2 cells (realtime PCR); assay type: cell-based, human; conditions: 100 U/ml IL-1β, 3 and 6 hours, p<0.05 vs time 0
Protocol: Referring to FIG. 2, IL-1β inhibition of SHP expression in HepG2 cells was examined as follows. IL-1β is typically not associated with repression of gene expression. To verify a direct IL-1β mediated repression of SHP expression, HepG2 cells were treated with 100 U/ml IL-1β. Total RNA prepared at various times afterward was analyzed for SHP expression by using realtime PCR. […] This was not due to a general decrease in cell viability as SHP mRNA levels returned to baseline levels by 9 hours following IL-1β treatment.

[2] = test system: mouse liver; conditions: GeneChip, 1 h after 20 ug/kg IL-1β ip, pretreated 5 days with vehicle or 100 ug/kg/day EE sc, vehicle+PBS=1.0;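 note: ovariectomized C57BL/6 mice, liver polyA RNA profiled, values are fold expression relative to vehicle plus PBS, averaged over two independent experiments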
Protocol: Experiments were conducted to evaluate IL-1β regulation of gene expression in the mouse liver. Ovariectomized C57BL/6 mice were pretreated by subcutaneous administration of either corn oil/ethanol vehicle or 100 ug/kg/day ethynylestradiol (EE) for 5 days. On the fifth day, the mice received an intraperitoneal injection of either PBS or 20 ug/kg IL-1β in PBS. One hour later the livers were removed and polyA RNA was prepared. Global gene expression was determined by analysis using murine 11K GeneChips from Affymetrix. For each gene, the level of expression in animals receiving vehicle pretreatment plus PBS was defined as 1.0, with the expression levels in the mice receiving vehicle pretreatment±IL-1β or EE pretreatment±IL-1β defined relative to this. The results shown are the mean from two independent experiments.
The fold regulation of each gene is plotted for animals receiving vehicle pretreatment x-axis) vs. animals receiving pretreatment with EE (y-axis). Genes with IL-1β induction unaffected by EE pretreatment would lie along the dotted diagonal.

[3] = test system: Fnk, JAB, LIX, bcl-3 and SHP; experiment: Liver expression of Fnk, JAB, LIX, bcl-3 and SHP by realtime PCR after estrogen receptor ligand pretreatment and IL-1β; conditions: for effect on regulation of liver Fnk, JAB, LIX, bcl-3 and SHP expression vs IL-1β alone: 1 or 10 mg/kg/day E2, 30 mg/kg/day genistein, 10 mg/kg/day ICI182780, plus IL-1β
Protocol: Referring to FIG. 3a, to distinguish these two mechanisms, the IL-1β fold induction of Fnk, JAB, LIX, and bcl-3 and the IL-1β fold repression of SHP was quantified in animals pretreated with vehicle (black bars) or 100 ug/kg/day EE (grey bars). Liver RNA levels of each gene (mean +/−SEM) were determined by realtime PCR of RNA from each individual animal.
Referring to FIGS. 4a, 4b, 4c, 4d and 4e, experiments were conducted to determine whether EE blocks IL-1β induction of gene expression by an estrogen receptor (ER) dependent mechanism. Estrogens can regulate gene expression by many mechanisms including ER independent pathways such as antioxidant mechanisms. […] Liver expression levels of Fnk, JAB, LIX, bcl-3 and SHP (mean +/−SEM) were determined by realtime PCR.
Referring to FIGS. 5a, 5b, 5c, 5d, and 5e, experiments were conducted to determine whether ERα is required for EE regulation of gene expression in the liver. To determine whether ERα or ERβ mediated the EE effects on IL-1β gene expression in the liver, C57BL/6 wild type mice, C57BL/6 ERαKO mice, or 129 ERβKO mice were pretreated with vehicle (black bars) or […] EE (gray bars) for 5 days followed by a 1 hour treatment with IL-1β. Liver expression levels of Fnk, JAB, LIX, bcl-3, and SHP (mean +/−SEM) were quantified by realtime PCR, with expression in animals receiving vehicle+PBS defined as 1.0.

[4] = test system: human SHP promoter; experiment: hSHP promoter luciferase reporter in HepG2 or 293 cells cotransfected with human ERα; assay type: cell-based; conditions: for SHP promoter activity, compound alone: 10 nM E2 or 1 uM compound, 24 hours
Protocol: Referring to FIGS. 11a and 11b, ERα regulation of hSHP promoter activity in human cells was examined. Human HepG2 or 293 cells were cotransfected with a control SV40 driven β-galactosidase plasmid, a luceriferase plasmid driven by 1.4 kb of the human SHP promoter, and an expression plasmid encoding either no protein or human ERα. […] Cell extracts were then analyzed for luciferase activity normalized for β-galactosidase activity.
Referring to FIGS. 12a, 12b, and 12c, ERα regulation of hSHP promoter activity in 293 cells was examined. Referring to FIGS. 12a and 12b, 293 cells were cotransfected with a control SV4O driven […] plasmid, a luceriferase plasmid driven by either 1.4 kb of the human SHP promoter or a synthetic 2×ERE/TK promoter, and an expression plasmid for human ERα. […] Cell extracts were then analyzed for luciferase activity with normalization for β-galaetosidase activity.

[5] = test system: SHP; experiment: Regulation of SHP expression in mouse liver, six weeks treatment, real time PCR; assay type: in vivo; conditions: for liver SHP mRNA levels, WT animals: ovariectomized wildtype mice, sc six weeks, 10 ug/kg/day E2, 5 mg/kg/day tamoxifen, 5 mg/kg/day PPT
Protocol: Several experiments were conducted to investigate the regulation of SHP expression, as follows. Referring to FIG. 9, ERα regulation of SHP expression in mouse liver was studied. […] Liver expression of SHP was monitored by real time PCR, with normalization for GAPDH expression. […] ICI182780 inhibited this induction.

[6] = test system: SHP; experiment: Regulation of SHP by estrogen in the rat liver, real time PCR; assay type: in vivo; conditions: ovariectomized Sprague-Dawley rats, 10 ug/kg/day E2 or 5 mg/kg/day PPT, six weeks
Excerpt: Liver expression of SHP was monitored by real time PCR, with normalization for GAPDH expression.

[7] = test system: prostaglandin D synthase, IPS; experiment: Liver expression of prostaglandin D synthase and IPS; assay type: in vivo; conditions: mouse liver; 30 mg/kg/day genistein, 5 mg/kg/day raloxifene
Excerpt: Referring to FIGS. 6a and 6b, experiments were constructed and performed to establish that EE induction of gene expression is not required for ERα inhibition of IL-1β gene inductions. […] The expression level in the vehicle+PBS treated mice was defined as 1.0. […] However, there was no correlation between the ability of these compounds to inhibit IL-1β gene induction (EE>genistein>raloxifene) and the ability of these compounds to stimulate prostaglandin D synthase expression (EE>>raloxifene>genistein).

[8] = mice, 100 ug/kg/day EE, 5 mg/kg/day raloxifene

IL-1: cytokine IL-1β, injected intraperitoneally in PBS or added to HepG2 cells
SHP expression [1]: significantly reduced
IL-1 Induction A20 (Tnfaip3) [2]: 14.0 fold
IL-1 Induction B94, TNF-α induced protein 2 (Tnfaip2) [2]: 17.1 fold
IL-1 Induction C/EBPδ (Cebpd) [2]: 7.0 fold
IL-1 Induction CD14 (Cd14) [2]: 3.5 fold
IL-1 Induction CD83 (Cd83) [2]: 6.2 fold
IL-1 Induction E-selectin (Sele) [2]: 7.2 fold
IL-1 Induction Ets transcription factor ELF3 (Elf3) [2]: 22.5 fold
IL-1 Induction G0/G1 switch gene 2 (G0s2) [2]: 0.11 fold
IL-1 Induction GTP binding protein IRG-47 (lfi47) [2]: 5.4 fold
IL-1 Induction Gadd45 (Gadd45a) [2]: 10.9 fold
IL-1 Induction Glvr-1 (Slc20a1) [2]: 3.9 fold
IL-1 Induction H-2Ld (H-2L) [2]: 8.2 fold
IL-1 Induction ICAM-1 (lcam1) [2]: 40.9 fold
IL-1 Induction IL-1m (Il1m) [2]: 23.6 fold
IL-1 Induction IL-15 receptor (Il15ra) [2]: 9.2 fold
IL-1 Induction IxBa (Nfkbia) [2]: 8.7 fold
IL-1 Induction JAB, suppressor of cytokine signaling 1 (Cish1) [2]: 7.3 fold
IL-1 Induction JE/MCP-1 (Scya2) [2]: 82.3 fold
IL-1 Induction LIX (Scyb5) [2]: 5.2 fold
IL-1 Induction LPS inducible C—C chemokine receptor related (AF030185) [2]: 6.3 fold
IL-1 Induction M-CSF (Csf1) [2]: 32.8 fold
IL-1 Induction MARCKS-like macrophage protein (Mlp) [2]: 4.8 fold
IL-1 Induction MIG (Scyb9) [2]: 15.0 fold
IL-1 Induction MIP2 (Scyb2) [2]: 60.1 fold
IL-1 Induction MIP-1 gamma (Scya9) [2]: 2.9 fold
IL-1 Induction MyD118 (GADD45b) [2]: 24.3 fold
IL-1 Induction NF-E2 related factor 2 (NRF2) (Nfe212) [2]: 5.2 fold
IL-1 Induction NF-kappa-B p105 (Nfkb1) [2]: 13.8 fold
IL-1 Induction NFkB p100 (Nfkb2) [2]: 4.0 fold
IL-1 Induction PAI-1 (Serpine1) [2]: 37.6 fold
IL-1 Induction PDGF-induced KC (Gro1) [2]: 7.3 fold
IL-1 Induction PIM-1 protein kinase (Pim1) [2]: 2.4 fold
IL-1 Induction SHP (NrGb2) [2]: 0.23 fold
IL-1 Induction T-cell death associated gene (Tdag) [2]: 2.5 fold
IL-1 Induction T-cell specific GTPase (Tgtp) [2]: 4.4 fold
IL-1 Induction TGFB inducible early growth response (Tieg) [2]: 0.31 fold
IL-1 Induction Ubiquitin-conjugating E2 enzyme variant 2 (Ube2v2) [2]: 5.0 fold
IL-1 Induction VCAM-1 (Vcam1) [2]: 5.2 fold
IL-1 Induction adrenergic receptor, beta 2 (Adrb2) [2]: 2.9 fold
IL-1 Induction adrenomedullin (Adm) [2]: 11.3 fold
IL-1 Induction apoptosis inhibitor 1 (Birc2) [2]: 12.2 fold
IL-1 Induction apoptosis inhibitor 2 (Birc3) [2]: 9.6 fold
IL-1 Induction bcl-3 (Bcl3) [2]: 11.6 fold
IL-1 Induction c-JUN (Jun) [2]: 4.8 fold
IL-1 Induction calcium binding protein A6 (S100a6) [2]: 2.4 fold
IL-1 Induction calgranulin A (S100A8) [2]: 10.4 fold
IL-1 Induction calgranulin B (S100a9) [2]: 12.5 fold
IL-1 Induction cytokine-inducible kinase Fnk (Cnk) [2]: 2.9 fold
IL-1 Induction gly96 (ler3) [2]: 42.1 fold
IL-1 Induction growth factor receptor bound protein 7 (Grb7) [2]: 0.27 fold
IL-1 Induction guanylate nucleotide binding protein 2 (Gbp2) [2]: 6.5 fold
IL-1 Induction helix-loop-helix factor HES-1 (Hes1) [2]: 0.09 fold
IL-1 Induction heme oxygenase 1 (Hmox1) [2]: 5.5 fold
IL-1 Induction hsp68 (Hsp70-3) [2]: 6.3 fold
IL-1 Induction inducible 6-phosphofructo-2-kinase (AA163244) [2]: 4.0 fold
IL-1 Induction inhibitor of DNA binding 3 (idb3) [2]: 6.0 fold
IL-1 Induction insulin-like growth factor binding protein 1 (lgfbp1) [2]: 4.0 fold
IL-1 Induction intercrine (Scya7) [2]: 12.4 fold
IL-1 Induction interferon regulatory factor 1 (Irf1) [2]: 10.5 fold
IL-1 Induction junB (Junb) [2]: 2.9 fold
IL-1 Induction lipocalin 2 (Lcn2) [2]: 5.5 fold
IL-1 Induction lkB-beta (Nfkbib) [2]: 4.0 fold
IL-1 Induction m-myc (Myc) [2]: 3.0 fold
IL-1 Induction macrophage interferon inducible protein 10 (Scyb10) [2]: 50.1 fold
IL-1 Induction metalloproteinase-disintegrin (Adamts1) [2]: 2.7 fold
IL-1 Induction molecule possessing ankyrin-repeats induced by LPS (aa614971) [2]: 22.7 fold
IL-1 Induction myocyte-enriched calcineurin interactin protein (Dscrl) [2]: 11.1 fold
IL-1 Induction noctumin (Ccr4) [2]: 7.7 fold
IL-1 Induction p65 NF-kappa B (Rela) [2]: 2.5 fold
IL-1 Induction phospholipid scramblase 1 (Plscr1) [2]: 4.4 fold
IL-1 Induction protein tyrosine phosphatase 4a1 (Ptp4a1) [2]: 2.0 fold
IL-1 Induction regulator for ribosome resistance homolog (Rrr) [2]: 2.8 fold
IL-1 Induction relB (Relb) [2]: 7.0 fold
IL-1 Induction rhoB (Arhb) [2]: 30.0 fold
IL-1 Induction serum amyloid A 3 (Saa3) [2]: 37.4 fold
IL-1 Induction serum amyloid A 4 (Saa4) [2]: 2.5 fold
IL-1 Induction suppressor of cytokine signaling 2 (Cish2) [2]: 2.7 fold
IL-1 Induction suppressor of cytokine signaling 3 (Cish3) [2]: 13.5 fold
IL-1 Induction transglutaminase (Tgm2) [2]: 2.2 fold
IL-1 repression of SHP expression ([3]; mouse liver, realtime PCR, vehicle treated or 100 ug/kg/day EE treated animals): 86%
IL-1 induction of bcl-3 ([3]; mouse liver, realtime PCR, vehicle treated or 100 ug/kg/day EE treated mice, IL-1 vs PBS): 6.2 fold

C[C@]12CC[C@@H]3c4ccc(O)cc4CC[C@H]3[C@@H]1CC[C@@H]2O [E2, 17β-estradiol]
SHP promoter activity, compound alone ([4]; 293 cells with human ERα): stimulated
SHP promoter activity ([4]; HepG2 or 293 cells, 10 nM E2 24 hours, only in cells expressing ERα): induced
effect on regulation of liver Fnk, JAB, LIX, bcl-3 and SHP expression vs IL-1β alone [3, 8]: greatest effect
expression of SHP in ERαKO or ERαβKO mice ([5]; 10 ug/kg/day E2, six weeks): did not induce
expression of SHP in ERβKO mice ([5]; 10 ug/kg/day E2, six weeks): still induced
liver SHP mRNA levels, WT animals [5]: induced
liver SHP expression, rat [6]: significantly induced

CCCc1c(-c2ccc(O)cc2)nn(-c2ccc(O)cc2)c1-c1ccc(O)cc1 [PPT]
liver SHP mRNA levels, WT animals [5]: induced
liver SHP expression, rat [6]: significantly induced

O=C(c1ccc(OCCN2CCCCC2)cc1)c1c(-c2ccc(O)cc2)sc2cc(O)ccc12 [raloxifene]
induction of IPS [7]: very weak induction
SHP promoter activity, compound alone ([4]; 293 cells with human ERα): inactive alone
effect on E2 activity at SHP promoter ([4]; 293 cells with human ERα, 1 uM compound plus 10 nM E2): antagonized
SHP expression in liver ([3]; mice, 5 mg/kg/day raloxifene (FIG. 4)): did not increase
effect on regulation of liver Fnk, JAB, LIX, bcl-3 and SHP expression vs IL-1β alone [3, 8]: magnitude was not as great
inhibition of IL-1β induction of Fnk, JAB, LIX and bcl-3 ([3]; mouse liver, 100 ug/kg/day EE, 30 mg/kg/day genistein, 5 mg/kg/day raloxifene): able to inhibit; also recorded: inhibited
